Patent US20250134902A1, “DRUG REPURPOSING FOR DELAYED TREATMENT OF ISCHEMIC STROKE” (UNIVESRITY OF NORTH TEXAS HEALTH SCIENCE CENTER, priority 2022, published 2025)
“Also recorded” adds a separate entry of the source.

Columns and labels:
[1] = target: T1, human Sigma-2 receptor (S2R) (Homo sapiens, UniProt Q5BJF2); experiment: Radioligand competition binding at Sigma-2 receptor ([3H]-DTG, untransfected MCF-7); conditions: displacement of 2.5 nM [3H]DTG, untransfected MCF-7 cells; average of 2-3 experiments ± SEM; read-out: S2R affinity (Ki)
T1 construct: these cells express the endogenous S2R; endogenous in cells; host or cells: untransfected human MCF-7 cells
T1 sequence (Q5BJF2 whole entry): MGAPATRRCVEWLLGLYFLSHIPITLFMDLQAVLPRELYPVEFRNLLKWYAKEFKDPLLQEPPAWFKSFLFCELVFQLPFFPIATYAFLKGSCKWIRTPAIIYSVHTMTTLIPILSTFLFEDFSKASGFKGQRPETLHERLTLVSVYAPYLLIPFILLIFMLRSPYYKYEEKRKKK
Method: Ki values were calculated from IC50 values using the Cheng-Prusoff equation.

[2] = test system: BDNF; experiment: Steady-state BDNF in brain homogenates by ELISA (rats of the maximum tolerated dose study); format: in vivo, rat; conditions: 135 mg/kg p.o., ten days
Method: Actions of oxeladin on BDNF in the brain. […] Cerebral cortex and hippocampal samples were homogenized in TBS supplemented with 0.1% NP-40 detergent and protease inhibitor cocktail. Protein concentrations were determined with a PIERCE® BCA assay (ThermoPierce). Samples were diluted 1:20 and assayed in triplicate according to manufacturer's instructions and assayed a FLEXSTATION® 3 plate reader (Molecular Devices, Sunnyvale, CA).

[3] = source not stated; cited from earlier work
[4] = test system: BDNF; experiment: BDNF western blot in ischemic penumbra after tMCAO; format: in vivo, rat; conditions: single dose 135 mg/kg 48 hours after tMCAO; P=0.02
Method: Rats were sacrificed under isoflurane anesthesia 2, 6, or 24 hours after dosing, and brains were removed to assess protein expression in the ischemic and contralateral cortex by immunoblotting. Brains were rapidly removed, chilled for 2 min in ice-cold saline, and sliced into 2 mm coronal slices with a brain matrix for rapid 2,3,5 triphenyltetrazolium chloride (TTC) staining. Sections were immersed in 1% TTC for 1 minute at room temperature to reveal the extent of the infarct. Cortical penumbra tissue was collected, snap frozen, and stored at −80° C. for subsequent western blotting. Protein was extracted from tissue using T-PER™ reagent with HALT protease inhibitor (Thermo-Pierce), and concentrations were determined with the PIERCE® BCA assay (Thermo-Pierce). Protein was separated on 4-20% SDS-PAGE gels (BioRad) and transferred to nitrocellulose. Blots were probed with primary antibodies for BDNF (Abcam ab226842; 1:1000) and goat anti-rabbit-HRP secondary (Thermo 32260; 1:10,000). Bands were visualized by ECL with PIERCE® SUPERSIGNAL® West Dura Femto (Thermo-Pierce) reagent using a UVP EpiChemi3. Density was assessed with Image J and normalized to β-actin (Thermo MA1-91399; 1:1000).

[5] = test system: rat model of focal cerebral ischemia (tMCAO); experiment: Neurological function after transient middle cerebral artery occlusion (Bederson, NDS, EBST); format: in vivo; conditions: for Neurological Deficit Score (NDS), Dunn's test: 135 mg/kg/d p.o.
Method: Evaluating the effect of Sigma receptor agonists in a rat model of focal cerebral ischemia. Rats were anesthetized with 5% isoflurane in oxygen and maintained at ˜2% through a nosecone. Core temperature was maintained with an infrared heating pad controlled by a rectal probe. Transient middle cerebral artery occlusion (tMCAO) was performed as previously described (Oppong-Gyebi et al., 2022). Briefly, a midline incision was made from the neck to the sternum. The left common carotid artery and bifurcation was mobilized, and a silicon-coated suture (Doccol, Sharon MA) was inserted through the external carotid artery into the internal carotid artery to reach the origin of the MCA at the base of the brain. The incision was closed, and rats were allowed to awaken so that successful occlusion could be assessed. Rats not displaying hemiparesis immediately post-surgery were excluded from the study. After 85-90 minutes occlusion, rats were anesthetized, and the suture was withdrawn to allow reperfusion. Rats were injected subcutaneously with 5 ml saline bilaterally to provide hydration during recovery. On the day following tMCAO, rats were assessed for persistent signs of stroke.
Only rats displaying hemiparesis immediately post-surgery were included in the study. Rats with a Bederson score of 0 or <50% contralateral bias on the elevated body swing test (EBST) (Borlongan and Sanberg, 1995) on Day 1 after tMCAO were excluded from the study. Animals that became moribund or died within 24 hours of tMCAO were excluded from the study.
Two days before tMCAO rats were trained to lick 5% sucrose from a 1 ml syringe. After behavioral assessment on Day 1 after tMCAO, rats were randomly assigned to 4 groups in a blinded fashion. Groups included sucrose Vehicle, or 45, 68 or 135 mg/kg oxeladin. Oxeladin was prepared in 5% sucrose and provided to rats from the end of a 1 ml syringe. Starting 48 hours after stroke, rats were administered treatments daily from day 3 to day 14. On days 3-14 rats were injected i.p. with 50 mg/kg bromodeoxyuridine (BrdU; Fisher Bioreagents). At the conclusion of the study, rats were euthanized under deep isoflurane anesthesia. Rats were transcardially perfused with cold saline and either decapitated for brain collection and flash freezing of brain tissue or transcardially perfused with 4% formaldehyde for immunohistochemical studies.
On days 1, 3, 7, and 14 after tMCAO, rats underwent a series of behavioral tests by a treatment blinded observer. All tests were performed in a room dimly lit with red light. Rats were assessed by the Bederson test (Bederson et al., 1986), and an 11-point Neurological Deficit test as previously described (Oppong-Gyebi et al., 2022). The elevated body swing test (EBST) was performed in an open field with 30 seconds between each of 20 lifts by the base of the tail (Borlongan and Sanberg, 1995). The EBST was scored as percent of nose swing to the contralateral side to the tMCAO.
The observer scored the rats using the Bederson test, which evaluates global neurological function and grades rodents on a scale of 0-5. Grade 0 (no defects) is assigned if animals extend both forelimbs toward the floor when suspended above the floor. Grade 1 (mild defects) is given when animals show forelimb flexion without any other abnormality. Grade 2 (modest defects) is given when animals display forelimb flexion and decreased resistance to lateral push toward the paretic side. Animals further showing circling behavior are scored Grade 3 (severe defects).
The observer also scored the rats using the Elevated Body Swing Test (EBST) in which rats lifted by the tail and held vertically swing their heads to the left or to the right. Whereas healthy animals on a group level are likely to swing approximately 50% to either side, animals with a unilateral cerebral lesion, e.g. ischemic stroke, should present with a dominant/biased swing direction.

[6] = 68 mg/kg/d p.o. starting 48 hours after tMCAO, days 7 and 14

What does the source list for `CCN(CC)CCOCCOC(=O)C(CC)(CC)c1ccccc1` [Oxeladin]?
Ki [1]: 148 ± 64 nM; BDNF levels in the hippocampus (ELISA) [2]: not in the hippocampus; BDNF levels in the cerebral cortex (ELISA) ([2]; P<0.05): significant increase; also recorded: significantly increase; LogP [3]: 4.43; ratio of mature 17 kDa BDNF to 42 kDa pro-BDNF in the ischemic penumbra [4]: significantly increased; Bederson score vs Vehicle [5, 6]: significantly improved; Elevated Body Swing Test (EBST) vs Vehicle [5, 6]: significantly improved; Bederson score vs Vehicle ([5]; 135 mg/kg/d p.o. starting 48 hours after tMCAO, days 3, 7 and 14): significant improvements; also recorded: significantly improved; Neurological Deficit Score (NDS) vs Vehicle ([5]; 135 mg/kg/d p.o. starting 48 hours after tMCAO, days 3 and 7): significantly improved; Elevated Body Swing Test (EBST) vs Vehicle ([5]; 135 mg/kg/d p.o. starting 48 hours after tMCAO, days 7 and 14): not 135 mg/kg showed improvement; Neurological Deficit Score (NDS), Dunn's test ([5]; day 3 (P=0.072)): trend for improvement; Neurological Deficit Score (NDS), Dunn's test ([5]; day 7 (P=0.028)): significant improvements; functional recovery after tMCAO ([5]; overall conclusion, p.o. dosing): improves functional recovery
